The values that follow are results of earlier work, collected in patent US20220409620A1, “REDUCING IMMUNOGENICITY TO PEGLOTICASE” (Horizon Pharma Rheumatology LLC, priority 2016, published 2022).

The test system of this data set is patients. The conditions noted are these: patients treated with allopurinol; cited from earlier work.

`Oc1ncnc2[nH]ncc12` [allopurinol]: the “patients developing allergic reactions” value was “Approximately 2%” and the severe hypersensitivity syndrome result is on record as “about 0.4%”.
